# Experimental data reported in patent publication US20160303251A1, “CONJUGATES OF GARFTASE INHIBITORS” (ENDOCYTE, INC., priority 2015, published 2016).
# Key:
# subcutaneous KB tumors = test: Antitumor activity in KB tumor model; format: in vivo, mice; settings: for PR, complete responses or cure: 1 μmol/kg
# Protocol: METHOD. Inhibition of Tumor Growth in Mice. Four to seven week-old mice (Balb/c or nu/nu strains) are purchased from Harlan Sprague Dawley, Inc. (Indianapolis, Ind.). […] For tumor cell inoculation, 1×10^6 M109 cells (a syngeneic lung carcinoma) in Balb/c strain, or 1×10^6 KB cells in nu/nu strain, in 100 μL are injected in the subcutis of the dorsal medial area (right axilla). Tumors are measured in two perpendicular directions every 2-3 days using a caliper, and their volumes are calculated as 0.5×L×W^2, where L=measurement of longest axis in mm and W=measurement of axis perpendicular to L in mm.
# Dosing is initiated when the s.c. tumors have an average volume between 50-100 […] (t0), typically 8 days post tumor inoculation (PTI) for KB tumors, and 11 days PTI for M109 tumors. Test animals (5/group) are injected i.v., generally three times a week (TIW), for 3 weeks with varying doses, such as with 1 μmol/kg to 5 μmol/kg, of the conjugate or with an equivalent dose volume of PBS (control), unless otherwise indicated. Dosing solutions are prepared fresh each day in PBS and administered through the lateral tail vein of the mice.
# Female Balb/c nu/nu mice were fed ad libitum with folate-deficient chow (Harlan diet #TD01013) for the duration of the experiment. KB tumor cells were inoculated subcutaneously at the right flank of each mouse. Mice were dosed after the tumors have reached a range of 107-152 mm^3 through the lateral tail vein under sterile conditions in a volume of 200 μL of phosphate-buffered saline (PBS).
# Growth of each s.c. tumor was followed by measuring the tumor two times per week. Tumors were measured in two perpendicular directions using Vernier calipers, and their volumes were calculated as 0.5×L×W^2, where L=measurement of longest axis in mm and W=measurement of axis perpendicular to L in mm.
# KB cells = test: In vitro activity in KB cells (3H-thymidine incorporation); format: cell-based, human; settings: 2 hr pulse at 37° C., chase up to 70 hr
# Protocol: Cells were seeded in 24-well Falcon plates and allowed to form nearly confluent monolayers overnight. After one rinse with 1 mL of fresh FFRPMI/HIFCS, each well received 1 mL of medium containing increasing concentrations of test agent (3 wells per sample). Cells were pulsed with targeted agents for 2 hr at 37° C., rinsed 4 times with 0.5 mL of medium, and then chased in 1 mL of fresh medium up to 70 hr. Cells were treated with non-targeted agent ECO347 for a continuous 72 h. Spent medium was aspirated from all wells and replaced with fresh medium containing 5 μCi/mL ^3H-thymidine. After a further 2 hr 37° C. incubation, cells were washed 3 times with 0.5 mL of PBS and then treated with 0.5 mL of ice-cold 5% trichloroacetic acid per well. After 15 min, the trichloroacetic acid. was aspirated and the cell material solubilized by the addition of 0.5 mL of 0.25 N sodium hydroxide for 15 min. Four hundred and fifty microliters of each solubilized sample were transferred to scintillation vials containing 3 mL of Ecolume scintillation cocktail and then counted in a liquid scintillation counter. Final tabulated results were expressed as the percentage of ^3H-thymidine incorporation relative to untreated controls and IC50 values calculated using Graphpad Prism software.
# [1] = 0.5 μmol/kg (EC1953 printed 0.5 mol/kg), TIW×2 wk, n=5
# [2] = 1 μmol/kg (EC1953, EC 2014 printed 1 mol/kg), TIW×2 wk, n=5
# [3] = mice having subcutaneous KB tumors
compound,measurement,setting,value
"Nc1nc2[nH]c(CCCc3ccc(C(=O)N[C@@H](CCC(=O)O)C(=O)O)s3)cc2c(=O)[nH]1 [AG94, reference compound]","PR, complete responses or cure","subcutaneous KB tumors; TIW×2 wk, n=5","none of the treatment groups showed a PR, complete responses, or cure"
same,IC50,KB cells; Homo sapiens,2500 pM
"Nc1nc2[nH]c(CCCCCCCC(=O)N[C@@H](CCC(=O)O)C(=O)O)cc2c(=O)[nH]1 [AG147, reference compound]",IC50,KB cells; Homo sapiens,1200 pM
CCCC(=O)OCN(C(=O)[C@@H](NC(=O)[C@H]1CCCCN1C)C(C)CC)[C@H](C[C@@H](OC(C)=O)c1nc(C(=O)N[C@@H](Cc2ccc(O)cc2)C[C@H](C)C(=O)NNC(=O)OCCSSCCC(=O)N[C@@H](CCC(=O)NC[C@H](O)[C@@H](O)[C@H](O)[C@H](O)CO)C(=O)N[C@@H](CCC(=O)O)C(=O)N[C@@H](CCC(=O)NC[C@H](O)[C@@H](O)[C@H](O)[C@H](O)CO)C(=O)N[C@@H](CCC(=O)O)C(=O)N[C@@H](CCC(=O)NC[C@H](O)[C@@H](O)[C@H](O)[C@H](O)CO)C(=O)N[C@@H](CSSCCOC(=O)CC[C@H](NC(=O)c2ccc(CCCc3cc4c(=O)[nH]c(N)nc4[nH]3)s2)C(=O)O)C(=O)O)cs1)C(C)C (some centres unmarked) [EC1953],"CR (complete responses) of {PR, CR, cure}",subcutaneous KB tumors; [1],1
same,"PR (partial responses) of {PR, CR, cure}",subcutaneous KB tumors; [1],3
same,"cure of {PR, CR, cure}",subcutaneous KB tumors; [2],5
same,"cure of {PR, CR, cure}","subcutaneous KB tumors; 2 umol/kg, q5d×2 wk (independent dosing protocol)",5
same,"cure of {PR, CR, cure}","subcutaneous KB tumors; 2 μmol/kg, single dose, n=5",2
same,"cures, observation period extended for 90 days","subcutaneous KB tumors; 1 mol/kg (so in the source), TIW×2 wk",5/5
same,"cures, observation period extended for 90 days","subcutaneous KB tumors; 2 mol/kg (so in the source), TIW×2 wk",5/5
same,"cure of {PR, CR, cure}","subcutaneous KB tumors; 2 mol/kg (so in the source), TIW×2 wk, n=5",5
same,dose response,subcutaneous KB tumors; [3],shows a dose response
same,efficacy compared to comparator,subcutaneous KB tumors; [3],more efficacious than the comparator folate-tubulysin conjugate
same,IC50,KB cells,400 pM
CCCC(=O)OCN(C(=O)[C@@H](NC(=O)[C@H]1CCCCN1C)C(C)CC)[C@H](C[C@@H](OC(C)=O)c1nc(C(=O)N[C@@H](Cc2ccc(O)cc2)C[C@H](C)C(=O)NNC(=O)OCCSSCCC(=O)N[C@@H](CCC(=O)NC[C@H](O)[C@@H](O)[C@H](O)[C@H](O)CO)C(=O)N[C@@H](CCC(=O)O)C(=O)N[C@@H](CCC(=O)NC[C@H](O)[C@@H](O)[C@H](O)[C@H](O)CO)C(=O)N[C@@H](CCC(=O)O)C(=O)N[C@@H](CCC(=O)NC[C@H](O)[C@@H](O)[C@H](O)[C@H](O)CO)C(=O)N[C@@H](CSSCCOC(=O)CC[C@H](NC(=O)CCCCCCCc2cc3c(=O)[nH]c(N)nc3[nH]2)C(=O)O)C(=O)O)cs1)C(C)C (some centres unmarked) [EC2014],"cure of {PR, CR, cure}",subcutaneous KB tumors; [2],5
same,IC50,KB cells,340 pM
tubulysin B-monohydrazide [reference compound],"PR, complete responses or cure","subcutaneous KB tumors; TIW×2 wk, n=5","none of the treatment groups showed a PR, complete responses, or cure"
